Results as given in patent US20240109912A1, “TRICYCLIC PYRIMIDINES AS CYCLIN-DEPENDENT KINASE 7 (CDK7) INHIBITORS” (JANSSEN PHARMACEUTICA NV, priority 2020, published 2024).
“And” between values parts separate entries of the source, which are not always exact repeats. Equal values may be shown once. Read-outs that look alike come from different tables or passages of the source.

Tests used:
[1] = tested on: RNA polymerase II Serine 5 phosphorylation in A549 cells overexpressing CDK7 mutant (C312S); assay: Imaging-based cellular RNA PolII Ser5 phosphorylation assay in A549 cells overexpressing CDK7-mutant (C312S); assay type: cell-based, human; conditions: for IC50: Homo sapiens, A549, A549 cells overexpressing CDK7 mutant (C312S), read-out: CDK7_ A549 mutant hCDK7(pIC50) (converted); for CDK7_ A549 mutant hCDK7(pIC50): A549 cells overexpressing CDK7 mutant (C312S)
Method in brief: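 A stably transduced A549 pool overexpressing CDK7 C312S, a mutant that blocks covalent binding at Cys312, while retaining endogenous wild-type CDK7 was used. Ser5 phosphorylation was measured by imaging, and IC50 values were derived.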

[2] = tested on: RNA polymerase II Serine 5 phosphorylation (CDK7) in A549 cells
[3] = target: CDK7/cyclinH/MAT1 trimeric complex (Homo sapiens (Human), UniProt P50613); assay: In vitro CDK7 assay, potency of irreversible covalent inhibitors (kinact/KI)
Chain of CDK7/cyclinH/MAT1 trimeric complex (P50613 whole entry): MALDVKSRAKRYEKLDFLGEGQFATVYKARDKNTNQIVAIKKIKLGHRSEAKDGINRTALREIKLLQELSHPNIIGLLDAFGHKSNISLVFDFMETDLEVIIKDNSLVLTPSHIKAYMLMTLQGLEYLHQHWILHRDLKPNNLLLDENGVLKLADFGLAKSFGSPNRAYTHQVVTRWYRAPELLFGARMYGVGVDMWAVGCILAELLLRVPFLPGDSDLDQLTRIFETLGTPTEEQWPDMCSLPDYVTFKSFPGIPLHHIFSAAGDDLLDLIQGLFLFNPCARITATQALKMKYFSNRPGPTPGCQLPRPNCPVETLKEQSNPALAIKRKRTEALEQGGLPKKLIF
Chain of CDK7/cyclinH/MAT1 trimeric complex (P51946 whole entry partner): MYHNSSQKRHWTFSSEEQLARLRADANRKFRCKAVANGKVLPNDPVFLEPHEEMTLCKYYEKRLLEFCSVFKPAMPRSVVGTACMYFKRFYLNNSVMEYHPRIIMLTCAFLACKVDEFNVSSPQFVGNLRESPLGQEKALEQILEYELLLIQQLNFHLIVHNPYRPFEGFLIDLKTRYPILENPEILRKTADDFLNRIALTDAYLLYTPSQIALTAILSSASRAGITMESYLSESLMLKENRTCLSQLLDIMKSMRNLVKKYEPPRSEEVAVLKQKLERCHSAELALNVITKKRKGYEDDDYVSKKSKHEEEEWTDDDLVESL
Chain of CDK7/cyclinH/MAT1 trimeric complex (P51948 whole entry partner): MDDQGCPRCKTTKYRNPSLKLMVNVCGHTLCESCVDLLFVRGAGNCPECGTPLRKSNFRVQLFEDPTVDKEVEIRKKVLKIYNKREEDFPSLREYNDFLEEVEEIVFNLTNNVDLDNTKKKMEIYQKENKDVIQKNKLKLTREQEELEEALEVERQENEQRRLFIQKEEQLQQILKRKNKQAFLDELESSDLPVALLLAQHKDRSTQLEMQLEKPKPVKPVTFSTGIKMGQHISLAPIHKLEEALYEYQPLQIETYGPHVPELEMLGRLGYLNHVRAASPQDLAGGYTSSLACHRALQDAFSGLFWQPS

[4] = read-out: CDK7 (kinact, s^−1), Table B
[5] = read-out: CDK7 (kinact/KI, M^−1*s^−1), Table B
[6] = CDK7 (20 nM enz.) (KI, μM), 20 nM enz.
[7] = read-out: CDK7 (20 nM enz.) (kinact, s^−1), 20 nM enz.
[8] = read-out: CDK7 (20 nM enz.) (kinact/ KI, M^−1*s^−1), 20 nM enz.
[9] = read-out: CDK7 (20 nM enz.) (kobs/[I], M^−1*s^−1), 20 nM enz.

Compound | IC50 [1] | melting point | IC50 [2] | Ki ([3]; CDK7 (KI(μM)), Table B) | CDK7 (kinact, s^−1) ([3]; Table B) | CDK7 (kinact/KI, M^−1*s^−1) ([3]; Table B) | kinact [3, 4] | kinact/KI [3, 5] | Ki [3, 6] | kinact [3, 7] | kinact/KI [3, 8] | CDK7_ A549 mutant hCDK7(pIC50) [1] | CDK7 (20 nM enz.) (kinact, s^−1) ([3]; 20 nM enz.) | kinact/KI [3, 9] | CDK7 (20 nM enz.) (kinact/ KI, M^−1*s^−1) ([3]; 20 nM enz.)
C=CC(=O)N1CC(N2CC[C@H](c3ccc4c(c3)Nc3ncnc(N5CCOCC5)c3CO4)[C@H](C)C2)C1 (single isomer, unassigned) [compound 37] | > 10 µM | 217 °C | 0.912 µM and 0.676 µM | 0.164 µM and 0.152 µM | 7.29e-05 s⁻¹ | 478.485 M⁻¹ s⁻¹ | 0.000137 s⁻¹ | 832 M⁻¹ s⁻¹ |  |  |  |  |  |  | 
C=CC(=O)N1CC(N2CCC(c3cc4c(cn3)OCc3c(ncnc3N3CCOCC3)N4)CC2)C1 [compound 48] | > 10 µM | 220 °C | 0.776 µM |  |  |  |  |  | 0.232 µM | 5.9e-05 s⁻¹ | 254 M⁻¹ s⁻¹ |  |  |  | 
C=CC(=O)N1CC(N2CC[C@@H](c3ccc4c(c3)Nc3ncnc(N5CCOCC5)c3CO4)[C@@H](C)C2)C1 [compound 36] | > 10 µM | 232 °C | 0.741 µM and 0.479 µM | 0.0803 µM and 0.233 µM | 0.0001256 s⁻¹ | 539.8 M⁻¹ s⁻¹ | 8.19e-05 s⁻¹ | 1020 M⁻¹ s⁻¹ |  |  |  |  |  |  | 
C=CC(=O)N1CC(N2CC(c3cc4c(c(C)n3)OCc3c(ncnc3N3CCS(=O)(=O)CC3)N4)C2)C1 [compound 64] | > 10 µM | > 300 °C | 7.24 µM |  |  |  |  |  | 0.427 µM | 4.81e-05 s⁻¹ | 113 M⁻¹ s⁻¹ |  |  |  | 
C=CC(=O)N1CC(N2C3CCC2CC(c2ccc4c(c2)Nc2ncnc(N5CCOCC5)c2CO4)C3)C1 (stereo not drawn) [compound 41] |  | 208 °C | 1.2 µM and 1.32 µM |  |  |  |  |  | 0.991 µM and 0.898 µM |  |  | <5 | 5.55e-05 s⁻¹ and 5.25e-05 s⁻¹ |  | 56 M⁻¹ s⁻¹ and 58.5 M⁻¹ s⁻¹
C=CC(=O)N1CC(N2CCC(c3ccc4c(c3)Nc3ncnc(N5CCOCC5)c3CO4)CC2C)C1 (stereo not drawn) [compound 34] | > 10 µM | 213 °C | 1 µM | 0.258 µM |  |  | 0.000186 s⁻¹ | 721 M⁻¹ s⁻¹ |  |  |  |  |  |  | 
C=CC(=O)N1CC[C@@H](N2CC(c3cc(C)c4c(c3)Nc3ncnc(N5CCS(=O)(=O)CC5)c3[C@@H](C)O4)C2)C1 (single isomer, unassigned) [compound 122] |  | 237 °C | 0.0813 µM and 0.0794 µM and 0.0617 µM |  |  |  |  |  | 0.0292 µM |  |  | <5 | 4.85e-05 s⁻¹ |  | 1658.55 M⁻¹ s⁻¹ and 891.412 M⁻¹ s⁻¹
C=CC(=O)N1CC[C@@H](N2CC(c3cc4c(c(C5CC5)c3)O[C@H](C)c3c(ncnc3N3CCS(=O)(=O)CC3)N4)C2)C1 (single isomer, unassigned) [compound 96] | > 10 µM | 233 °C | 0.525 µM |  |  |  |  |  | 0.0324 µM | 2.16e-05 s⁻¹ | 665 M⁻¹ s⁻¹ |  |  |  | 
C=CC(=O)N1CC[C@H](N2CC(c3cc4c(c(C5CC5)c3)O[C@H](C)c3c(ncnc3N3CCS(=O)(=O)CC3)N4)C2)C1 (single isomer, unassigned) [compound 95] | > 10 µM | 193 °C | ~0.955 µM |  |  |  |  |  | 0.0708 µM | 2.35e-05 s⁻¹ | 332 M⁻¹ s⁻¹ |  |  |  | 
C=CC(=O)N1CC(N2C3CCC2CC(c2ccc4c(c2)Nc2ncnc(N5CCOCC5)c2CO4)C3)C1 (stereo not drawn) [compound 40] | > 10 µM | 212 °C | 0.437 µM |  |  |  |  |  | 0.16 µM | 5.56e-05 s⁻¹ |  |  |  |  | 347 M⁻¹ s⁻¹
C=CC(=O)N1CC(N2CCC(c3ccc4c(c3)Nc3ncnc(C5=CCOCC5)c3CO4)CC2)C1 [compound 39] | > 10 µM | 243 °C | 2.24 µM |  |  |  |  |  | 0.61 µM | 5.09e-05 s⁻¹ | 83.4 M⁻¹ s⁻¹ |  |  |  | 
C=CC(=O)N1CC(N2CCC(c3cc4c(c(C)n3)O[C@@H](C)c3c(ncnc3N3CCS(=O)(=O)CC3)N4)CC2)C1 (single isomer, unassigned) [compound 86] | > 10 µM | 247 °C | 0.525 µM |  |  |  |  |  | 0.117 µM | 6.46e-05 s⁻¹ | 551 M⁻¹ s⁻¹ |  |  |  | 
CC#CC(=O)N1CCC(N2CCN(c3cc(C)c4c(c3)Nc3ncnc(N5CCS(=O)(=O)CC5)c3CO4)CC2)CC1 [compound 136] | > 10 µM | 240 °C | 0.257 µM |  |  |  |  |  | 0.0874 µM | 5.36e-05 s⁻¹ | 613 M⁻¹ s⁻¹ |  |  |  | 
C=CC(=O)N1CC(N2CCC(c3ccc4c(c3)Nc3ncnc(N5CCOCC5)c3[C@H](CC)O4)CC2)C1 (single isomer, unassigned) [compound 75] | > 10 µM | 123 °C | 0.646 µM |  |  |  |  |  | 0.265 µM | 3.84e-05 s⁻¹ | 145 M⁻¹ s⁻¹ |  |  |  | 

More lines, main results first:

IC50 [1] | melting point | IC50 [2] | Ki ([3]; CDK7 (KI(μM)), Table B) | CDK7 (kinact, s^−1) ([3]; Table B) | CDK7 (kinact/KI, M^−1*s^−1) ([3]; Table B) | kinact [3, 4] | kinact/KI [3, 5] | Ki [3, 6] | kinact [3, 7] | kinact/KI [3, 8] | CDK7_ A549 mutant hCDK7(pIC50) [1] | CDK7 (20 nM enz.) (kinact, s^−1) ([3]; 20 nM enz.) | kinact/KI [3, 9] | Compound | CDK7 (20 nM enz.) (kinact/ KI, M^−1*s^−1) ([3]; 20 nM enz.)
7.76 µM | 200 °C | 0.0813 µM |  |  |  |  |  | 0.234 µM | 4.3e-05 s⁻¹ | 184 M⁻¹ s⁻¹ |  |  |  | C=CC(=O)N1CCC(N2CC(c3cc(C)c4c(c3)Nc3ncnc(N5CCS(=O)(=O)CC5)c3CO4)C2)CC1 [compound 87] | 
> 10 µM | 189 °C | 0.115 µM |  |  |  |  |  | 0.16 µM | 5.91e-05 s⁻¹ | 370 M⁻¹ s⁻¹ |  |  |  | CC#CC(=O)N1CC(N2CCC(c3cc(C)c4c(c3)Nc3ncnc(N5CCS(=O)(=O)CC5)c3CO4)CC2)C1 [compound 151] | 
> 10 µM | 220 °C | 0.234 µM |  |  |  |  |  | 0.0068 µM | 2.76e-05 s⁻¹ | 4030 M⁻¹ s⁻¹ |  |  |  | C=CC(=O)N1CCC(N2CC(c3cc4c(c(C5CC5)c3)O[C@@H](C)c3c(ncnc3N3CCS(=O)(=O)CC3)N4)C2)C1 (mixture of isomers) [compound 97] | 
> 10 µM | 240 °C | 0.0676 µM |  |  |  |  |  |  |  |  |  |  | 725 M⁻¹ s⁻¹ | C=CC(=O)N1CC(N2CCC(c3cc4c(c(C)n3)O[C@H](C)c3c(ncnc3N3CCS(=O)(=O)CC3)N4)CC2)C1 (single isomer, unassigned) [compound 85] | 
 | 250 °C | 0.257 µM |  |  |  |  |  | 0.283 µM |  |  | <5 | 5.21e-05 s⁻¹ |  | C=CC(=O)N1CC(N2CCC(c3cc4c(cn3)O[C@H](C)c3c(ncnc3N3CCOCC3)N4)CC2)C1 (single isomer, unassigned) [compound 60] | 184.255 M⁻¹ s⁻¹
> 10 µM | > 300 °C | ~0.0126 µM |  |  |  |  |  | 0.0249 µM | 4.14e-05 s⁻¹ | 1660 M⁻¹ s⁻¹ |  |  | 1280 M⁻¹ s⁻¹ | C=CC(=O)N1CC(N2CCC(c3cc(C)c4c(c3)Nc3ncnc(N5CCS(=O)(=O)CC5)c3[C@H](C)O4)CC2)C1 [compound 32] | 
> 10 µM | 245 °C | 0.123 µM |  |  |  |  |  | 0.0825 µM | 5.9e-05 s⁻¹ | 714 M⁻¹ s⁻¹ |  |  |  | C=CC(=O)N1CC(N2CCC(c3cc(F)c4c(c3)Nc3ncnc(-c5cnn(C)c5)c3[C@@H](C)O4)CC2)C1 (single isomer, unassigned) [compound 52] | 
> 10 µM | > 300 °C | 0.112 µM |  |  |  |  |  | 0.148 µM | 8.33e-05 s⁻¹ | 563 M⁻¹ s⁻¹ |  |  |  | C=CC(=O)N1CC(N2CCC(c3cc(C)c4c(c3)Nc3ncnc(N5CCS(=O)(=O)CC5)c3[C@@H](C)O4)CC2)C1 (single isomer, unassigned) [compound 84] | 
